Measured values as given in patent US20190175560A1, “MEBENDAZOLE CANCER THERAPIES AND METHODS OF USE” (Shepherd Therapeutics, Inc., priority 2017, published 2019).

Experiments:
[1] = Tolerability of daily oral MBZ dosing in ACC PDX mice; assay type: in vivo; settings: athymic nude mice with ACC PDX tumors; 50 or 200 mg/kg daily
Description: (§1) Despite a deepening understanding of the molecular events that lead to sustained tumor growth, there are currently no approved therapies for ACC. Identification of therapies for ACC has been hampered by the lack of ACC cell lines and transgenic mouse models. To circumvent these issues, the activity of MBZ was tested in several ACC patient-derived xenograft (PDX) models. Athymic nude mice were implanted subcutaneously with PDX tumors and treatment was initiated when tumors reached a size of 125-300 mm^3. Mice were randomized into three treatment groups to receive daily treatment with vehicle or MBZ at either 50 or 200 mg/kg for the duration of the study. Tumor size was measured twice weekly.

[2] = test system: SNU16 gastric carcinoma cells; test: Synergy of MBZ or HA-PLGA-MBZ with chemotherapeutic agents (Chou-Talalay CI, Cell Titer Glo); assay type: cell-based; settings: SNU16 + 5-FU
Description: For in vitro experiments, cells were plated in triplicate and treated with a range of concentrations of MBZ and relevant chemotherapeutic agents in a complete Latin square.
Cells were plated in triplicate and treated with a range of 5 concentrations of MBZ in combination with 5 concentrations of chemotherapeutic agents in a complete Latin square. Following a 72 hour incubation, cell viability was determined using Cell Titer Glo.
In table 22 below, cells were plated in triplicate and treated with a range of 5 concentrations of MBZ or HA-PLGA-MBZ nanoparticles containing a molar equivalent of MBZ, and 5 concentrations of relevant chemotherapeutic agents in a complete Latin square. Combination indexes (CI) were determined based on the method described by Chou-Talalay with a CI value less than 0.9 indicating synergy. […] Numbers in parentheses represent the range of synergistic CI values for each cell line and drug combination.

[3] = test system: TOV-112D cells; test: MBZ cell viability IC50 (CellTiter Glo); assay type: cell-based; settings: Homo sapiens, TOV112D, 72 hours
Description: (§2) The effect of mebendazole administration on cell lines derived from exemplary cancers was tested. One approach to determining the effectiveness of mebendazole in the treatment of cancer comprises in vitro testing. In this approach, cancer cell lines representative of the cancers of the disclosure are cultured in vitro according to standard techniques (see, for example, Human Cell Culture Protocols, Third Edition, […] R. D. Hughes, Editors, Humana Press, 2012), and increasing concentrations of mebendazole are administered to determine the IC50 value. As used herein, the term “IC50 value” refers to the concentration of a compound (for example mebendazole) wherein the response to that compound (such as inhibited cellular viability) is reduced by half. The IC50 is thus a measure of the effectiveness of a compound in inhibiting a biological process. […] Based on this biology, several rare cancer tumor cell lines including neuroblastoma, rhabdomyosarcoma and Ewing sarcoma were analyzed for sensitivity to MBZ treatment in vitro. […] In all cases, including those described below, the viable cells were determined using the CellTiter Glo® kit and an IC50 curve was generated using the PRISM software. […] FIGS. 1 and 2 show the effect of mebendazole on 3 ovarian cancer derived cell lines, A2780cis, SKOV-3 and TOV-112D at 24 hours, 48 hours and 72 hours. […] Percent cell viability is shown on the Y-axis, from 0 to 150 in units of 25. A2780cis cell data are represented by filled circles and a dotted line. SKOV-3 cell data are represented by squares and a solid line. TOV-112D cell data are represented by triangles and a dashed line. […] In FIG. 2, on the X-axis, the log concentration of mebendazole in μM, indicated from -4 to 4 in units of 2. In FIG. 2, on the Y-axis, percent viability is shown, from 0 to 125 in units of 25.

[4] = test system: A2780cis cells; test: MBZ cell viability IC50 (CellTiter Glo); assay type: cell-based; settings: 72 hours
Description: as §2

[5] = test system: SKOV-3 ovarian carcinoma cell line; test: MBZ cell viability IC50 (CellTiter Glo); assay type: cell-based; settings: Homo sapiens, SK-OV-3, 72 hours, 0-50 μM
Description: as §2

[6] = test system: Rh-41 rhabdomyosarcoma cell line; test: MBZ cell viability IC50 (CellTiter Glo); assay type: cell-based; settings: Homo sapiens, Rh41, 72 hours
Description: (§3) The effect of mebendazole administration on cell lines derived from exemplary cancers was tested. One approach to determining the effectiveness of mebendazole in the treatment of cancer comprises in vitro testing. In this approach, cancer cell lines representative of the cancers of the disclosure are cultured in vitro according to standard techniques (see, for example, Human Cell Culture Protocols, Third Edition, […] R. D. Hughes, Editors, Humana Press, 2012), and increasing concentrations of mebendazole are administered to determine the IC50 value. As used herein, the term “IC50 value” refers to the concentration of a compound (for example mebendazole) wherein the response to that compound (such as inhibited cellular viability) is reduced by half. The IC50 is thus a measure of the effectiveness of a compound in inhibiting a biological process. […] Based on this biology, several rare cancer tumor cell lines including neuroblastoma, rhabdomyosarcoma and Ewing sarcoma were analyzed for sensitivity to MBZ treatment in vitro. […] In all cases, including those described below, the viable cells were determined using the CellTiter Glo® kit and an IC50 curve was generated using the PRISM software.

[7] = test system: Rh-30 rhabdomyosarcoma cell line; test: MBZ cell viability IC50 (CellTiter Glo); assay type: cell-based; settings: Rh30, 72 hours
Description: as §3

[8] = test system: SNU-16 gastric carcinoma cell line; test: MBZ cell viability IC50 (CellTiter Glo); assay type: cell-based; settings: Homo sapiens, 72 hours
Description: as §3

[9] = test system: NCI-H295R adrenal cortical carcinoma cell line; test: MBZ cell viability IC50 (CellTiter Glo); assay type: cell-based; settings: Homo sapiens, 72 hours
Description: as §3

[10] = test system: TC-71 Ewing's sarcoma cell line; test: MBZ cell viability IC50 (CellTiter Glo); assay type: cell-based; settings: 72 hours
Description: as §3

[11] = test system: CHLA-9 Ewing's sarcoma cell line; test: MBZ cell viability IC50 (CellTiter Glo); assay type: cell-based; settings: 72 hours
Description: as §3

[12] = test system: TC-32 Ewing's sarcoma cell line; test: MBZ cell viability IC50 (CellTiter Glo); assay type: cell-based; settings: Homo sapiens, 72 hours
Description: as §3

[13] = test system: SK-UT-1B leiomyosarcoma cell line; test: MBZ cell viability IC50 (CellTiter Glo); assay type: cell-based; settings: Homo sapiens, Skut1B, 72 hours
Description: as §3

[14] = test system: SW-13 adrenal cortical carcinoma cell line; test: MBZ cell viability IC50 (CellTiter Glo); assay type: cell-based; settings: Homo sapiens, SW13, 72 hours
Description: as §3

[15] = test system: ACCX5M1 PDX tumors; test: ACC patient-derived xenograft (PDX) model, daily oral MBZ; assay type: in vivo, mice; settings: 50 or 200 mg/kg daily oral
Description: (§4) The effectiveness of mebendazole can be assayed in vivo using a patient derived xenograft mouse model. In patient derived xenograft mice, cancerous cells isolated from a cancer patient are implanted into an immunodeficient mouse, and allowed to form tumors. The mice are then administered mebendazole, and the effect on tumor size and mouse viability is assayed. As xenograft cancers can be implanted from a variety of patient sources, the effectiveness of mebendazole treatment on multiple cancers can be assayed in this manner. Human cancer cell lines such as those tested in vitro can similarly be used in mouse xenograft tumor models.
as §1

[16] = test system: ACCX9 PDX tumors; test: as above; assay type: in vivo, mice; settings: for median survival: vehicle 29.5 days
Description: as §4, §1

[17] = test system: ACCX6 PDX tumors; test: as above; assay type: in vivo, mice; settings: for median survival: vehicle 42 days
Description: as §4, §1

[18] = both the 50 and 200 mg/kg dose levels

Which “tolerability of daily oral dosing” value [1] does the source give for COC(=O)Nc1nc2ccc(C(=O)c3ccccc3)cc2[nH]1 [MBZ, methyl N-(6-benzoyl-1H-benzimidazol-2-yl)carbamate] here?
Its value is “well tolerated with no overt toxicities”.

What about the “range of synergistic CI values” [2] of the same compound?
Its value is 0.223-0.837.

What about the IC50 [3] of the same compound?
The IC50 was 200 nM.

What about the IC50 [4] of the same compound?
Its IC50 is 250 nM.

And the IC50 [5]?
The IC50 was about 4400 nM.

And the IC50 [6]?
Its IC50 is 490 nM.

And the IC50 [7]?
The IC50 was 100 nM.

And the IC50 [8]?
The IC50 was 420 nM.

What about the IC50 [9] of the same compound?
Its IC50 is 100 nM.

What about the IC50 [10] of the same compound?
Its IC50 is 470 nM.

What about the IC50 [11] of the same compound?
Its IC50 is 1020 nM.

And the IC50 [12]?
Its IC50 is 410 nM.

And the IC50 [13]?
The IC50 was 100 nM.

And the IC50 [14]?
Its IC50 is 260 nM.

What about the tumor growth [15] of the same compound?
Its tumor growth is “did not inhibit tumor growth”.

What about the median survival ([16]; 50 mg/kg daily oral, not statistically significant) of the same compound?
Its median survival is 33 days.

What about the tumor volume ([16]; 200 mg/kg) of the same compound?
Its tumor volume is “decrease in tumor volume”.

And the median survival ([16]; 200 mg/kg daily oral)?
Its median survival is 38 days.

And the anti-tumor activity ([16]; highest dose of 200 mg/kg)?
Its anti-tumor activity is “statistically significant anti-tumor activity”.

And the median survival ([17]; 50 mg/kg daily oral)?
Its median survival is 95.5 days.

And the median survival ([17]; 200 mg/kg daily oral)?
The median survival was 64.5 days.

What about the “tumor growth compared to vehicle” value [17, 18] of the same compound?
Its value is “Inhibition of tumor growth”.

What about the tumor volume [17, 18] of the same compound?
The tumor volume was “decrease in tumor volume”.
